Source: patent US8343475B2, “Small cationic antimicrobial peptides” (priority 2006, dated 2013)
Converted amounts (≈) assume the structure as drawn. Residues, ends and D or L forms follow the SMILES beside them.

Key:
[1] = test system: Pseudomonas aeruginosa PAO1 strain H103; type: cell-based
Outline: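 Modified broth microdilution MIC in Mueller Hinton medium, peptides diluted in 0.01% acetic acid/0.2% BSA, polypropylene plates. Inoculum 2-7×10^5 CFU/ml, overnight at 37 °C; MIC is the lowest concentration with no visible growth.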

[2] = test system: Enterococcus faecalis ATCC29212; type: cell-based; details: ATCC29212
Outline: (§1)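 First, peptides were serially diluted at ten times final strength in 0.01% acetic acid with 0.2% BSA. These were then added to Mueller Hinton medium and inoculated with overnight-grown organisms at 2-7×10^5 CFU/ml. After overnight incubation at 37° C, the MIC was scored as the concentration without growth.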

Escherichia coli UB1005 = type: cell-based; details: UB1005
Outline: as §1

[3] = test system: Staphylococcus aureus ATCC25923; type: cell-based; details: ATCC25923
Outline: as §1

[4] = test system: clinical isolate of Staphylococcus epidermidis; type: cell-based; details: clinical isolate of
Outline: as §1

[5] = test system: lab isolate of Candida albicans; type: cell-based; details: lab isolate of
Outline: as §1

[6] = test system: wild-type Salmonella enterica ssp. typhimurium; type: cell-based
Outline: as §1

[7] = test system: IL8 release by human PBMC; assay: Chemokine induction in PBMC (capture ELISA); type: cell-based; details: 20 or 100 μg/ml peptide, 24 hours (FIG. 14)
Experimental: FIG. 14. Induction of IL8 release by 7.5×10^5 human PBMC in response to treatment with 20 or 100 μg/ml of different peptides for 24 hours.
Venous blood (20 ml) from healthy volunteers was collected in Vacutainer® collection tubes containing sodium heparin as an anticoagulant (Becton Dickinson, Mississauga, ON) in accordance with UBC ethical approval and guidelines. Blood was diluted 1:1 with complete RPMI 1640 medium and separated by centrifugation over a Ficoll-Paque® Plus (Amersham Biosciences, Piscataway, N.J., USA) density gradient. White blood cells were isolated from the buffy coat, washed twice in RPMI 1640 complete medium, and the number of peripheral blood mononuclear cells (PBMC) was determined by trypan blue exclusion. PBMC (5×10^5) were seeded into 12-well tissue culture dishes (Falcon; Becton Dickinson) at 0.75 to 1×10^6 cells/ml at 37° C. in 5% CO2. The above conditions were chosen to mimic conditions for circulating blood monocytes entering tissues at the site of infection via extravasation.
Following incubation of the cells under various treatment regimens, the tissue culture supernatants were centrifuged at 1000×g for 5 min, then at 10,000×g for 2 min to obtain cell-free samples. Supernatants were aliquoted and then stored at −20° C. prior to assay for various chemokines by capture ELISA (eBioscience and BioSource International Inc., CA, USA respectively)

[8] = test system: MCP-1 release by human PBMC; assay: Chemokine induction in PBMC (capture ELISA); type: cell-based; details: background (204) subtracted
Outline: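 Heparinized blood from healthy volunteers; Ficoll-isolated human PBMC (7.5×10^5) treated with peptides at 20 or 100 μg/ml for 24 hours at 37° C, 5% CO2. Cell-free supernatants assayed for MCP-1 by capture ELISA.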

[9] = test system: MCP-3 release by human PBMC; assay: Chemokine induction in PBMC (capture ELISA); type: cell-based; details: background (6) subtracted
Outline: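 Human PBMC from healthy donors (Ficoll-isolated), 7.5×10^5 cells at 0.75–1×10^6 cells/ml, treated with peptides at 20 or 100 μg/ml for 24 h at 37° C, 5% CO2. MCP-3 in cell-free supernatants measured by capture ELISA.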

[10] = test system: CXCL1 (Gro-α) release by human PBMC; assay: Chemokine induction in PBMC (capture ELISA); type: cell-based; details: background (196) subtracted
Outline: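 Human PBMC from healthy donors' heparinised blood (Ficoll), 7.5×10^5 cells treated with 20 or 100 μg/ml peptide for 24 h at 37° C, 5% CO2. Cell-free supernatants assayed for CXCL1 by capture ELISA.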

[11] = test system: clinical isolates of MRSA; type: cell-based, Staphylococcus aureus
Outline: (§2)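 Modified broth microdilution in Mueller Hinton medium, peptides serially diluted in 0.01% acetic acid with 0.2% BSA in polypropylene plates. Inoculum 2-7×10^5 CFU/ml, overnight incubation at 37° C; MIC taken as lowest concentration with no visible growth.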

ESBL E. cloacae = type: cell-based, Enterobacter cloacae
Outline: as §2

[12] = test system: Liverpool Epidemic Strains; type: cell-based, Pseudomonas aeruginosa
Outline: as §2

[13] = test system: multidrug resistant Brazilian clinical isolates of P. aeruginosa; type: cell-based, Pseudomonas aeruginosa
Outline: as §2

[14] = test system: ESBL E. coli clinical strain 64771; type: cell-based; details: ESBL clinical strain 64771
Outline: (§3)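 Broth microdilution in Mueller Hinton medium, peptides serially diluted in 0.01% acetic acid with 0.2% BSA in polypropylene plates. Inoculum 2-7×10^5 CFU/ml, incubated overnight at 37° C. MIC is the lowest concentration with no visible growth.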

[15] = test system: ESBL Klebsiella pneumonia clinical strain 63575; type: cell-based
Outline: as §3

[16] = test system: VRE Vancomycin resistant Enterococcus faecalis clinical isolates; type: cell-based
Outline: as §3

[17] = test system: multidrug resistant Pseudomonas maltophilia ATCC13637; type: cell-based
Outline: as §3

S. aureus = assay: Mouse model of aggressive bacterial infection (intraperitoneal); type: in vivo; details: 1.6×10^10 CFU IP; 4 mg/kg peptide IP four hours post infection; total infection time 24 hours; saline controls 100% death
Experimental: FIG. 10. Ability of new antimicrobial peptides HHC-10 and HHC-36 to protect mice against Staph aureus infections. Bacterial loads in the peritoneal lavage from individual mice after 24 hours of infection are shown (solid circles). Dead animals were assigned the highest colony forming unit (CFU) count obtained in the experiment. The solid line represents the arithmetic mean for each group.
FIG. 18. […] Mice were treated with 1.6×10^10 CFU of S. aureus intraperitoneally. Four hours post infection they received a dose of 8 mg/kg peptide IP. The infection was allowed to progress for 4 or 24 hours after which mice were euthanaised and plate counts of staphylococci surviving in the peritoneum were determined. Bacterial loads in the peritoneal lavage from individual mice after 24 hours of infection are shown (solid circles). The solid line represents the arithmetic mean for each group.
FIG. 19. […] Mice were treated with 1.6×10^10 CFU of S. aureus intraperitoneally. Four hours post infection they received a dose of 8 mg/kg peptide IP. The infection was allowed to progress for 4 or 24 hours after which mice were euthanaised and plate counts of staphylococci surviving in the peritoneum were determined. Bacterial loads in the peritoneal lavage from individual mice after 24 hours of infection are shown (solid circles). The solid line represents the arithmetic mean for each group.
To further confirm this, a mouse model of aggressive bacterial infection, widely used to assess antibiotic efficacy, was utilized. Mice were treated with 1.6×10^10 CFU IP. Four hours post infection they received a dose of 4 mg/kg peptide IP. The infection was allowed to progress for 20 more hours, for a total infection time of 24 hours.
These immunomodulatory activities led to protection against infections by S. aureus. Briefly a mouse model of aggressive bacterial infection, widely used to assess antibiotic efficacy, was utilized. […] The infection was allowed to progress for 4 or 24 hours after which mice were euthanaised and plate counts of staphylococci surviving in the peritoneum were determined.

Row | SMILES | Chemokine induction MCP-1 ([8]; 20 μg/ml peptide) | Chemokine induction MCP-1 ([8]; 100 μg/ml peptide) | Chemokine induction MCP-3 ([9]; 20 μg/ml peptide) | Chemokine induction MCP-3 ([9]; 100 μg/ml peptide) | Chemokine induction Gro-α ([10]; 20 μg/ml peptide) | Chemokine induction Gro-α ([10]; 100 μg/ml peptide) | MIC [2] | MIC [3] | MIC [11] | MIC (ESBL E. cloacae) | MIC [12] | MIC [14] | MIC [15] | MIC [17] | mice protected (S. aureus) | further results
1 | CC(C)[C@H](NC(=O)[C@H](CCCNC(=N)N)NC(=O)[C@H](Cc1ccccc1)NC(=O)[C@H](CCCNC(=N)N)NC(=O)[C@H](Cc1ccccc1)NC(=O)[C@H](CCCNC(=N)N)NC(=O)[C@H](Cc1ccccc1)NC(=O)[C@H](CCC(N)=O)NC(=O)[C@@H](N)Cc1c[nH]cn1)C(=O)N[C@@H](CCCNC(=N)N)C(=O)N[C@@H](CCCNC(=N)N)C(=O)N[C@@H](CCCCN)C(N)=O [HH13, HQFRFRFRVRRK] (H-HQFRFRFRVRRK-NH2; N-terminus assumed) | 1 pg/mL | 0 pg/mL | 40 pg/mL | 54 pg/mL | 15 pg/mL | 42 pg/mL | – | – | – | – | – | – | – | – | – | MIC P. aerug ([1]; PAO1): 50 mg/L (≈ 28.9 µM); MIC E. faecalis [2]: >50 mg/L; MIC E. coli (Escherichia coli UB1005): 25 mg/L (≈ 14.4 µM); MIC S. aureus [3]: 12 mg/L (≈ 6.93 µM); MIC S. epi. [4]: 6 mg/L (≈ 3.46 µM); MIC C. albicans [5]: >50 mg/L; MIC S. typhi [6]: 12 mg/L (≈ 6.93 µM); induction of IL8 [7]: strongest abilities to induce this chemokine
2 | CC[C@H](C)[C@H](NC(=O)[C@H](CC(N)=O)NC(=O)[C@H](CCCCN)NC(=O)[C@H](Cc1ccccc1)NC(=O)[C@H](CCCNC(=N)N)NC(=O)[C@H](Cc1c[nH]c2ccccc12)NC(=O)[C@H](C)N)C(=O)N[C@@H](CCCNC(=N)N)C(=O)N[C@@H](CCCCN)C(N)=O [HHC126, AWRFKNIRK] (H-AWRFKNIRK-NH2; N-terminus assumed) | 314 pg/mL | 104 pg/mL | 3 pg/mL | 0 pg/mL | 75 pg/mL | -2 pg/mL | >223 µM | 223 µM (≈ 272 µg/mL) | >223 µM | >223 µM | 111 µM (≈ 135 µg/mL) | 223 µM (≈ 272 µg/mL) | >223 µM | >223 µM | – | antimicrobial activity against P. aeruginosa PAO1 (in words) ([1]; laboratory strain P. aeruginosa PAO1): did not return any generally active substances; MIC [13]: >223 µM; MIC [16]: >223 µM
3 | CC[C@H](C)[C@H](NC(=O)[C@H](Cc1c[nH]c2ccccc12)NC(=O)[C@H](CCCCN)NC(=O)[C@H](Cc1c[nH]c2ccccc12)NC(=O)[C@H](Cc1c[nH]c2ccccc12)NC(=O)[C@H](CCCNC(=N)N)NC(=O)[C@@H](N)CCCCN)C(=O)N[C@@H](CCCNC(=N)N)C(=O)N[C@@H](Cc1c[nH]c2ccccc12)C(N)=O [HHC10, KRWWKWIRW] (H-KRWWKWIRW-NH2; N-terminus assumed) | 48 pg/mL | 3210 pg/mL | -1 pg/mL | 49 pg/mL | -11 pg/mL | 2 pg/mL | 12 µM (≈ 17.3 µg/mL) | 3 µM (≈ 4.33 µg/mL) | 1.5 µM (≈ 2.17 µg/mL) | 3 µM (≈ 4.33 µg/mL) | 0.8 µM (≈ 1.16 µg/mL) | 1.5 µM (≈ 2.17 µg/mL) | 6 µM (≈ 8.66 µg/mL) | 0.4 µM (≈ 0.578 µg/mL) | 40% | –
4 | N=C(N)NCCC[C@H](NC(=O)[C@H](CCCNC(=N)N)NC(=O)[C@H](Cc1c[nH]c2ccccc12)NC(=O)[C@H](Cc1c[nH]c2ccccc12)NC(=O)[C@H](CCCCN)NC(=O)[C@H](Cc1c[nH]c2ccccc12)NC(=O)[C@H](Cc1c[nH]c2ccccc12)NC(=O)[C@H](CCCNC(=N)N)NC(=O)[C@@H](N)CCCCN)C(N)=O [HHC36, KRWWKWWRR] (H-KRWWKWWRR-NH2; N-terminus assumed) | 38 pg/mL | 168 pg/mL | 1 pg/mL | 1 pg/mL | 19 pg/mL | -8 pg/mL | 43 µM (≈ 63.9 µg/mL) | 3 µM (≈ 4.46 µg/mL) | 1.4 µM (≈ 2.08 µg/mL) | 11 µM (≈ 16.4 µg/mL) | 0.3 µM (≈ 0.446 µg/mL) | 3 µM (≈ 4.46 µg/mL) | 22 µM (≈ 32.7 µg/mL) | 1.4 µM (≈ 2.08 µg/mL) | 60% | –
